Source: ChEMBL document CHEMBL1833788, “Selective water-soluble gelatinase inhibitor prodrugs” (J Med Chem, 2011)

How the values were obtained:
Mus musculus [1] = assay: Distribution half life in C57B1/6 mouse plasma assessed as N-(4-(4-(thiiran-2-ylmethylsulfonyl)phenoxy)phenyl)acetamide level at […], iv administered as single bolus dose; format: ADME, organism-based; details: in vivo
Mus musculus [2] = assay: Prodrug conversion in C57B1/6 mouse plasma assessed as parent compound level at […], iv administered as single bolus dose after 62 to 66 mins by reversed-phase LC/MS analysis; format: ADME, organism-based; details: in vivo, read-out: Drug metabolism
Mus musculus [3] = assay: Prodrug conversion in C57B1/6 mouse plasma assessed as parent compound level at […], iv administered as single bolus dose after 4 to 5 mins by reversed-phase LC/MS analysis; format: ADME, organism-based; details: in vivo, read-out: Drug metabolism
Mus musculus [4] = assay: Prodrug conversion in C57B1/6 mouse assessed as 4-[4-((Thiiran-2-yl)methylsulphonyl)phenoxy]benzamine level in plasma at […], iv administered as single bolus dose after 2 to 3 mins by reversed-phase HPLC/UV analysis; format: ADME, organism-based; details: in vivo
Mus musculus [5] = assay: Prodrug conversion in C57B1/6 mouse assessed as 4-[4-((Thiiran-2-yl)methylsulphonyl)phenoxy]benzamine level in plasma at […], iv administered as single bolus dose after 240 mins by reversed-phase HPLC/UV analysis; format: ADME, organism-based; details: in vivo, 4 h, read-out: Drug metabolism
Mus musculus [6] = assay: AUC (0 to last) in C57B1/6 mouse plasma assessed as parent compound level at […], iv administered as single bolus dose; format: ADME, organism-based; details: in vivo
Mus musculus [7] = assay: Prodrug conversion in C57B1/6 mouse assessed as 4-[4-((Thiiran-2-yl)methylsulphonyl)phenoxy]benzamine level in plasma at […], iv administered as single bolus dose after 7 to 8 mins by reversed-phase HPLC/UV analysis; format: ADME, organism-based; details: in vivo
Mus musculus [8] = assay: Prodrug conversion in C57B1/6 mouse assessed as N-(4-(4-((Thiiran-2-ylmethyl)sulfonyl)phenoxy)phenyl) hydroxylamine level in urine at […], iv administered as single dose by reversed-phase LC/MS analysis; format: ADME, organism-based; details: in vivo
Mus musculus [9] = assay: Distribution half life in C57B1/6 mouse plasma assessed as 4-[4-((Thiiran-2-yl)methylsulphonyl)phenoxy]benzamine level at […], iv administered as single dose; format: ADME, organism-based; details: in vivo
Mus musculus [10] = assay: Prodrug conversion in C57B1/6 mouse assessed as N-(4-(4-((Thiiran-2-ylmethyl)sulfonyl)phenoxy)phenyl) hydroxylamine level in plasma at […], iv administered as single dose by reversed-phase LC/MS analysis; format: ADME, organism-based; details: in vivo
Mus musculus [11] = assay: Prodrug conversion in C57B1/6 mouse assessed as N-(4-(4-(thiiran-2-ylmethylsulfonyl)phenoxy)phenyl)acetamide level in plasma at […], iv administered as single bolus dose after 22 mins by reversed-phase HPLC/UV analysis; format: ADME, organism-based; details: in vivo
Mus musculus [12] = assay: Clearance in C57B1/6 mouse plasma assessed as parent compound level at […], iv administered as single bolus dose; format: ADME, organism-based; details: in vivo
Mus musculus [13] = assay: Prodrug conversion in C57B1/6 mouse assessed as N-(4-(4-(thiiran-2-ylmethylsulfonyl)phenoxy)phenyl)acetamide level in plasma at […], iv administered as single bolus dose after 62 to 66 mins by reversed-phase LC/MS analysis; details: in vivo
Mus musculus [14] = assay: Prodrug conversion in C57B1/6 mouse plasma assessed as parent compound level at […], iv administered as single bolus dose after 22 mins by reversed-phase LC/MS analysis; format: ADME, organism-based; details: in vivo, read-out: Drug metabolism
Mus musculus [15] = assay: AUC (0 to infinity) in C57B1/6 mouse plasma assessed as N-(4-(4-(thiiran-2-ylmethylsulfonyl)phenoxy)phenyl)acetamide level at […], iv administered as single bolus dose; format: ADME, organism-based; details: in vivo, BLD = below limit of detection
Mus musculus [16] = assay: Prodrug conversion in C57B1/6 mouse plasma assessed as parent compound level at […], iv administered as single bolus dose after 7 to 8 mins by reversed-phase LC/MS analysis; format: ADME, organism-based; details: in vivo
Mus musculus [17] = assay: AUC (0 to last) in C57B1/6 mouse plasma assessed as N-(4-(4-(thiiran-2-ylmethylsulfonyl)phenoxy)phenyl)acetamide level at […], iv administered as single bolus dose; format: ADME, organism-based; details: in vivo
Mus musculus [18] = assay: Prodrug conversion in C57B1/6 mouse assessed as 4-[4-((Thiiran-2-yl)methylsulphonyl)phenoxy]benzamine level in plasma at […], iv administered as single bolus dose after 42 mins by reversed-phase HPLC/UV analysis; format: ADME, organism-based; details: in vivo, 0.7 h, read-out: Drug metabolism
Mus musculus [19] = assay: Prodrug conversion in C57B1/6 mouse plasma assessed as parent compound level at […], iv administered as single bolus dose after 11 to 12 mins by reversed-phase LC/MS analysis; format: ADME, organism-based; details: in vivo, read-out: Drug metabolism
Mus musculus [20] = assay: Prodrug conversion in C57B1/6 mouse assessed as N-(4-(4-(thiiran-2-ylmethylsulfonyl)phenoxy)phenyl)acetamide level in plasma at […], iv administered as single bolus dose after 4 to 5 mins by reversed-phase HPLC/UV analysis; format: ADME, organism-based; details: in vivo, read-out: Drug metabolism
Mus musculus [21] = assay: Volume of distribution in C57B1/6 mouse plasma assessed as parent compound level at […], iv administered as single bolus dose; format: ADME, organism-based; details: in vivo
Mus musculus [22] = assay: AUC (0 to last) in C57B1/6 mouse plasma assessed as 4-[4-((Thiiran-2-yl)methylsulphonyl)phenoxy]benzamine level at […], iv administered as single bolus dose; format: ADME, organism-based; details: in vivo
Mus musculus [23] = assay: Prodrug conversion in C57B1/6 mouse plasma assessed as parent compound level at […], iv administered as single bolus dose after 240 mins by reversed-phase LC/MS analysis; format: ADME, organism-based; details: in vivo, 4 h, read-out: Drug metabolism
Mus musculus [24] = assay: Distribution half life in C57B1/6 mouse plasma assessed as parent compound level at […], iv administered as single bolus dose; format: ADME, organism-based; details: in vivo
Mus musculus [25] = assay: Prodrug conversion in C57B1/6 mouse plasma assessed as parent compound level at […], iv administered as single bolus dose after 42 mins by reversed-phase LC/MS analysis; format: ADME, organism-based; details: in vivo, 0.7 h
Mus musculus [26] = assay: Terminal half life in C57B1/6 mouse plasma assessed as N-(4-(4-(thiiran-2-ylmethylsulfonyl)phenoxy)phenyl)acetamide level at […], iv administered as single bolus dose; format: ADME, organism-based; details: in vivo, BLD = below limit of detection
Mus musculus [27] = assay: Prodrug conversion in C57B1/6 mouse plasma assessed as parent compound level at […], iv administered as single bolus dose after 2 to 3 mins by reversed-phase LC/MS analysis; format: ADME, organism-based; details: in vivo, read-out: Drug metabolism
Mus musculus [28] = assay: Terminal half life in C57B1/6 mouse plasma assessed as parent compound level at […], iv administered as single bolus dose; format: ADME, organism-based; details: in vivo
Mus musculus [29] = assay: Prodrug conversion in C57B1/6 mouse plasma assessed as parent compound level at […], iv administered as single bolus dose after 120 to 123 mins by reversed-phase LC/MS analysis; format: ADME, organism-based; details: in vivo, read-out: Drug metabolism
Mus musculus [30] = assay: Prodrug conversion in C57B1/6 mouse assessed as N-(4-(4-(thiiran-2-ylmethylsulfonyl)phenoxy)phenyl)acetamide level in plasma at […], iv administered as single bolus dose after 42 mins by reversed-phase HPLC/UV analysis; format: ADME, organism-based; details: in vivo, 0.7 h
Mus musculus [31] = assay: Prodrug conversion in C57B1/6 mouse assessed as 4-[4-((Thiiran-2-yl)methylsulphonyl)phenoxy]benzamine level in plasma at […], iv administered as single bolus dose after 62 to 66 mins by reversed-phase HPLC/UV analysis; format: ADME, organism-based; details: in vivo, read-out: Drug metabolism
Mus musculus [32] = assay: Prodrug conversion in C57B1/6 mouse assessed as N-(4-(4-(thiiran-2-ylmethylsulfonyl)phenoxy)phenyl)acetamide level in plasma at […], iv administered as single bolus dose after 11 to 12 mins by reversed-phase LC/MS analysis; details: in vivo

**Q.** Which alphat1/2 (Mus musculus [1]) does the source give for `Cl.N=C(N)NCCC[C@H](N)C(=O)Nc1ccc(Oc2ccc(S(=O)(=O)CC3CS3)cc2)cc1` (some centres not stated) here?
**A.** The alphat1/2 was 12 min.

**Q.** What about the concentration (Mus musculus [2]) of the same molecule?
**A.** Its concentration is 38.5 nM.

**Q.** And the concentration (Mus musculus [3])?
**A.** Its concentration is 7320 nM.

**Q.** And the Drug metabolism (Mus musculus [4])?
**A.** Its Drug metabolism is 12.3 µM.

**Q.** What about the concentration (Mus musculus [5]) of the same molecule?
**A.** The concentration was 14.5 nM.

**Q.** What about the AUClast (Mus musculus [6]) of the same molecule?
**A.** The AUClast was 360 µM·min.

**Q.** What about the Drug metabolism (Mus musculus [7]) of the same molecule?
**A.** The Drug metabolism was 4.5 µM.

**Q.** And the Drug metabolism (Mus musculus [8])?
**A.** The Drug metabolism was “Not Active”.

**Q.** What about the alphat1/2 (Mus musculus [9]) of the same molecule?
**A.** The alphat1/2 was 2.9 min.

**Q.** And the Drug metabolism (Mus musculus [10])?
**A.** The Drug metabolism was “Not Active”.

**Q.** And the Drug metabolism (Mus musculus [11])?
**A.** The Drug metabolism was 0.0627 µM.

**Q.** What about the CL (Mus musculus [12]) of the same molecule?
**A.** Its CL is 58.2 mL/min/kg.

**Q.** What about the Drug metabolism (Mus musculus [13]) of the same molecule?
**A.** Its Drug metabolism is 0.0121 µM.

**Q.** And the concentration (Mus musculus [14])?
**A.** The concentration was 138 nM.

**Q.** What about the AUC (Mus musculus [15]) of the same molecule?
**A.** Its AUC is “BLD”.

**Q.** What about the Drug metabolism (Mus musculus [16]) of the same molecule?
**A.** Its Drug metabolism is 1.28 µM.

**Q.** What about the AUClast (Mus musculus [17]) of the same molecule?
**A.** Its AUClast is 4.22 µM·min.

**Q.** What about the concentration (Mus musculus [18]) of the same molecule?
**A.** Its concentration is 207 nM.

**Q.** And the concentration (Mus musculus [19])?
**A.** The concentration was 1580 nM.

**Q.** And the concentration (Mus musculus [20])?
**A.** The concentration was 231 nM.

**Q.** And the Vd (Mus musculus [21])?
**A.** The Vd was 0.0978 L/kg.

**Q.** And the AUClast (Mus musculus [22])?
**A.** The AUClast was 137 µM·min.

**Q.** What about the concentration (Mus musculus [23]) of the same molecule?
**A.** The concentration was 8.3 nM.

**Q.** What about the alphat1/2 (Mus musculus [24]) of the same molecule?
**A.** Its alphat1/2 is 0.88 min.

**Q.** What about the Drug metabolism (Mus musculus [25]) of the same molecule?
**A.** The Drug metabolism was 0.0872 µM.

**Q.** And the “beta t1/2” value (Mus musculus [26])?
**A.** The value was “BLD”.

**Q.** What about the concentration (Mus musculus [27]) of the same molecule?
**A.** Its concentration is 35100 nM.

**Q.** And the “beta t1/2” value (Mus musculus [28])?
**A.** Its value is 4.33 h.

**Q.** What about the concentration (Mus musculus [29]) of the same molecule?
**A.** Its concentration is 17.1 nM.

**Q.** And the Drug metabolism (Mus musculus [30])?
**A.** Its Drug metabolism is 0.0358 µM.

**Q.** And the concentration (Mus musculus [31])?
**A.** The concentration was 90.8 nM.

**Q.** What about the Drug metabolism (Mus musculus [32]) of the same molecule?
**A.** Its Drug metabolism is 0.149 µM.
